The record followed here is patent US20180036289A1 (Gilead Sciences, Inc., priority 2016, published 2018).

The subject of assay [1] is TT. Conditions: TT cell line; 120 hours incubation. As for the experimental part: (§1) All cell lines were obtained from the American Type Culture Collection (ATCC) Manassas, Va. (US). Master and working cell banks (MCB and WCB) were prepared by subculturing in ATCC-recommended media and freezing protocols (www.atcc.org). Cell line stocks for the assays were prepared from the WCB. The MCB, WCBs and assay stocks were prepared within respectively 3, 6 and 9 passages of the ATCC vial.
(§2) Solid powders of reference compounds were weighed on a calibrated balance and dissolved in 100% DMSO. DMSO samples were stored at room temperature. At the day of the experiment, the compound stock was diluted in 3.16 fold steps in 100% DMSO to obtain a 9-point dilution series. This was further diluted 31.6 times in 20 mM sterile Hepes buffer pH 7.4. A volume of 5 μl was transferred to the cells to generate a test concentration range from 3.16×10^−5M to 3.16×10^−9 M in duplicate. The final DMSO concentration during incubation was […] in all wells.
(§3) An assay stock was thawed and diluted in its ATCC recommended medium and dispensed in a 384-well plate, depending on the cell line used, at a concentration of 200-3200 cells per well in 45 μl medium. For each used cell line the optimal cell density is used. The margins of the plate were filled with phosphate-buffered saline. Plated cells were incubated in a humidified atmosphere of 5% CO2 at 37° C. After 24 hours, 5 μl of compound dilution was added and plates were further incubated for another 120 hours. After 120 hours, 25 μl of ATPlite 1Step™ (PerkinElmer) solution was added to each well, and subsequently shaken for 2 minutes. After 10 minutes of incubation in the dark, the luminescence was recorded on an Envision multimode reader (PerkinElmer).
(§4) IC50s were calculated by non-linear regression using IDBS XLfit 5. The percentage growth after 120 h (%-growth) was calculated as follows: 100%×(luminescencet=120h/luminescenceuntreated,t=120h). This was fitted to the ^10log compound concentration (conc) by a 4-parameter logistics curve: %−growth=bottom+(top−bottom)/(1+10^(log IC50-conc)*hill)), where hill is the Hill-coefficient, and bottom and top the asymptotic minimum and maximum cell growth that the compound allows in that assay.

In assay [2] the test system is NCI-H460. Kind of assay: Cell proliferation assay (ATPlite), drug with vs without cobicistat. In kind it is cell-based. Conditions: NCI-H460 cell line; 120 hours incubation. In outline:
(§5)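 Growth inhibition assay: cells (200–3200/well) pre-incubated 24 h, exposed 120 h to compound at 3.16×10^−5–3.16×10^−9 M with 0.4% DMSO throughout. Viability by ATPlite luminescence; IC50 from %-growth curve fitting.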

Assay [3] relates to LS 174T. The assay is described as above. The format is cell-based. The note with it: LS 174T cell line; 120 hours incubation. In outline:
as §5

Assay [4] deals with RKO. The description is as above. The note with it: RKO cell line; 120 hours incubation. In kind it is cell-based. In outline: as §5
The test system of assay [5] is COLO 829. Described as above. The format is cell-based. The note with it: COLO 829 cell line; 120 hours incubation. Put shortly: as §5
The subject of assay [6] is Jurkat E6.1. The assay is described as above. In kind it is cell-based. Conditions: Jurkat E6.1 cell line; 120 hours incubation. In outline: as §5
Assay [7] deals with cell lines tested. Put plainly: Cell proliferation assay, summary across all cell lines and drugs. The format is cell-based. The note with it: comparison among the six primary drugs. As for the experimental part: as §1, §2, §3, §4

Take `CC(=O)O[C@@]12CO[C@@H]1C[C@H](O)[C@@]1(C)C(=O)[C@H](O)C3=C(C)[C@@H](OC(=O)[C@H](O)[C@@H](NC(=O)OC(C)(C)C)c4ccccc4)C[C@@](O)([C@@H](OC(=O)c4ccccc4)[C@H]21)C3(C)C` [docetaxel]: the “Fold change in IC50 (IC50 [Drug + Cobicistat]/IC50 [Drug])” value (from here on “Fold change in IC50”) turned out to be 3.6 fold in assay [1]; 2.1 fold in assay [2]; 2.8 fold in assay [3]; 3.8 fold in assay [4]; 3.7 fold in assay [5]; 2.2 fold in assay [6]. In addition, in assay [7], the “extent of boosting by cobicistat” value is reported as “boosted to the greatest extent”.
For `CC[C@]1(O)C[C@@H]2CN(CCc3c([nH]c4ccccc34)[C@@](C(=O)OC)(c3cc4c(cc3OC)N(C)[C@H]3[C@@](O)(C(=O)OC)[C@H](OC(C)=O)[C@]5(CC)C=CCN6CC[C@]43[C@@H]65)C2)C1` [vinblastine], the “Fold change in IC50” value is 8.7 fold in assay [1]; 3.4 fold in assay [2]; 3.4 fold in assay [3]; 3.6 fold in assay [4]; 6.3 fold in assay [5]; 2.5 fold in assay [6]. Further, in assay [7], the “extent of boosting by cobicistat” value is recorded as “boosted to the greatest extent”.
Regarding `COc1cccc2c1C(=O)c1c(O)c3c(c(O)c1C2=O)C[C@@](O)(C(=O)CO)C[C@@H]3O[C@H]1C[C@H](N)[C@H](O)[C@H](C)O1` [doxorubicin], the “Fold change in IC50” value in assay [1] is given as 1.1 fold; in assay [2], 2.0 fold; in assay [3], 3.6 fold; in assay [4], 2.9 fold; in assay [5] it was 3.8 fold; in assay [6] it was 2.5 fold.
`CC(=O)O[C@H]1C(=O)[C@@]2(C)[C@H]([C@H](OC(=O)c3ccccc3)[C@]3(O)C[C@H](OC(=O)[C@H](O)[C@@H](NC(=O)c4ccccc4)c4ccccc4)C(C)=C1C3(C)C)[C@]1(OC(C)=O)CO[C@@H]1C[C@@H]2O` [paclitaxel]: the “Fold change in IC50” value came out at 3.0 fold in assay [1]; 2.0 fold in assay [2]; 1.8 fold in assay [3]; 3.3 fold in assay [4]; 4.1 fold in assay [5]; 2.5 fold in assay [6].
Consider `Cc1nc(Nc2ncc(C(=O)Nc3c(C)cccc3Cl)s2)cc(N2CCN(CCO)CC2)n1` [dasatinib], for which the “Fold change in IC50” value in assay [1] is reported as 0.8 fold.
In the case of `CC[C@]1(O)C[C@H]2CN(CCc3c([nH]c4ccccc34)[C@@](C(=O)OC)(c3cc4c(cc3OC)N(C=O)[C@H]3[C@@](O)(C(=O)OC)[C@H](OC(C)=O)[C@]5(CC)C=CCN6CC[C@]43[C@@H]65)C2)C1` [vincristine], the “Fold change in IC50” value in assay [1] came out at 4.8 fold; in assay [2], 3.1 fold; in assay [3] it was 2.5 fold; in assay [4] it was 3.7 fold; in assay [5] it was 4.4 fold; in assay [6] it was 2.8 fold. For the same compound, in assay [7], the “extent of boosting by cobicistat” value is recorded as “boosted to the greatest extent”.
